The results in this text go back to patent publication US20090215896A1, “REELIN DEFICIENCY OR DYSFUNCTION AND METHODS RELATED THERETO” (MARTEK BIOSCIENCES CORPORATION, priority 2004, published 2009).

The subject of this assay is Reelin-deficient mice (B6C3Fe a/a-Reln<rl>/J). The experiment in a line: Reelin feeding study: number of offspring with reeler phenotype per diet group. The format is in vivo. To be noted: DHA to pregnant and lactating dam and to pups after weaning, vs DHA Deficient Diet; P=0.04. The text has this:
In the following experiment, the inventors tested whether LC-PUFA dietary enrichment (DHA) for mice lacking one or more normal reelin genes will correct Reelin histopathology/symptoms and will normalize the fatty acid profiles observed in Reelin-deficient mice. Specifically, the inventors evaluated whether dietary enrichment of long-chain polyunsaturated fatty acids (DHA) will correct or modulate Reelin histopathology/symptoms in Reelin-deficient mice.
Materials and Methods: The Reelin feeding study was sponsored by Martek Biosciences Corporation and initiated at Jackson Labs, Bar Harbor, Me. (Stock used: 300235 B6C3Fe a/a-Reln/J). Heterozygous females were mated with heterozygous males and received one of two experimental diets: a DHA DEFICIENT DIET (0% DHA by weight; 0.14% alpha linolenic acid by weight), or a DHA ADEQUATE DIET (0.462% DHA by weight, with 0.115% alpha linolenic acid by weight). The females continued to receive the specific diet throughout pregnancy and lactation. Homozygous, heterozygous, and wild-type pups born to pregnant females were placed on the same specific maternal diet at weaning. The number of reeler mice was recorded within each diet group. […] Pups were sacrificed at between 8 and 14 weeks of age and tissues were collected for fatty acid analysis.

`CCC=CCC=CCC=CCC=CCC=CCC=CCCC(=O)O` [DHA, 4,7,10,13,16,19-docosahexaenoic acid]: the “reduction of the incidence of male reeler animals” value was ~3 fold.
